Like-named read-outs stand apart in the source and are kept apart here. Some results are limits rather than exact numbers.

In one experiment the test system is HT22 cells. Put plainly: HT22 oxytosis (glutamate-induced cell death) neuroprotection assay. In kind it is cell-based, mouse. To be noted: 10 mM Glu. On the procedure: The HT22 murine hippocampal cell system was chosen as an initial phenotypic screen for neuroprotective efficacy (Andreux et al., 2013; Andreux et al., 2014; Ohlow et al., 2017; Schubert and Maher, 2012). HT22 cells exposed to high extracellular Glu ([…]) undergo oxytosis, a non-apoptotic programmed cell death involving glutathione (GSH) depletion followed by ROS accumulation, oxidative damage, and a cytotoxic signaling cascade (Tan et al., 2001). Glu blocks the −xC cystine antiporter, causing (Tan et al., 2001) cells to accumulate severe oxidative stress, mitochondrial depolarization, disrupted mitochondrial morphology, and Ca^2+ influx (Tan et al., 2001; Yang et al., 2011; Cheng et al., 2013—cellular events that may occur in neurological diseases, including epilepsy. Thus, the immortalized HT22 cell line is a well-established model of neuronal oxidative stress (Sagara and Schubert, 1998; Matsumoto et al., 1996; Albrecht et al., 2010; Ha and Park, 2006; van Leyen et al., 2005; Tobaben et al., 2011), and a verified model of neurodegeneration to screen for potential neuroprotective drugs (Albrecht et al., 2010; van Leyen et al., 2008; Lewerenz et al., 2009; Lewerenz et al., 2003).
Consistent with that work, most of the 2-amino compounds achieved protection of HT22 cells against glutamate-induced oxytosis in the nM to μM range. […] Neuroprotection based on relative cell viability compared to +Glu and −Glu control cells was measured.
The HT22 neuronal cell line is a subclone of HT4, derived from the mouse hippocampus (Morimoto and Koshland, 1990). […] The HT22 cells used in this study were kindly provided by Dr. David Schubert (The Salk Institute for Biological Studies, La Jolla, CA, USA). The cells were grown in Dulbecco's Modified Eagle's Medium (DMEM/high glucose) supplemented with 10% fetal bovine serum (Hyclone) and 5 mL of antibiotic-antimycotic (Amphotericin B, Penicillin, and Streptomycin; Invitrogen) at 37° C. in 5% CO2.
HT-22 cells were seeded onto 96-well plates at 2.5×10^3 cells per well in 75 μL of medium and maintained at 37° C. in 5% CO2 overnight prior to the initiation of experimental treatments. For glutamate toxicity testing, cells were subsequently treated with 25 μL of medium containing glutamate (monosodium glutamate, Sigma, 1 M stock concentration in media, to achieve a final concentration of 10 mM) plus compound (stock in DMSO) and maintained at 37° C. in 5% CO2 for 24 hr. CellTiter-Blue® (resazurin cell viability assay reagent) was then added to each well at a final concentration of 0.125 mg/mL. The mixture was allowed to incubate for 2-4 hr until sufficient color change occurred. Cell viability was measured as a function of resorufin fluorescence intensity using a Tecan M200 Pro spectrophotometer, 560 nm/590 nm (excitation/emission). Cell viability was calculated as a percentage compared with untreated controls. EC50s were determined using GraphPad Prism's “log(inhibitor) vs. normalized response-Variable slope” function. Morphology of HT22 cells following treatments was determined by phase-contrast microscopy.
(§1) Statistical analyses were performed with GraphPad Prism 6 software. For the in vitro HT22 oxytosis assay, dose-response data were fit using GraphPad Prism's log(inhibitor) vs normalized response-variable slope parameters to determine EC50 values and 95% confidence intervals. For the zebrafish locomotive anti-seizure activity data, multiple comparisons were made using a one-way analysis of variance (ANOVA) with a Kruskal-Wallis Test, followed by the Dunn's Method to determine significant differences between all pairs or between control and experimental groups using the Dunn Method for Joint Ranking. Differences were considered statistically significant when p<0.05. Data from zebrafish experiments are represented as scatter dot plots of individual measurements, with means±standard deviation indicated by bars.

For experiment [1], the system named is PTZ-induced seizure activity in zebrafish larvae. Put plainly: Zebrafish PTZ-induced seizure model. In kind it is in vivo. To be noted: for minimal effective concentration / anti-seizure activity: 7 dpf larvae; for minimal effective concentration: 1 hr pre-treatment, 10 mM PTZ, read-out: Anti-seizure activity: lowest tested dose with significant difference vs PTZ-only group; for anti-seizure activity: PTZ. The method, then:
The zebrafish PTZ-induced seizure model was used to determine the most promising compounds' in vivo efficacy. Zebrafish larvae (7 dpf) were treated with the compound for 1 hr prior to inducing seizures with PTZ. As established by previous larval zebrafish anti-seizure studies (Rahn et al., 2014; Hansen et al., 2004; Baraban et al., 2005), total distance traveled by each fish after seizure induction was measured and used as a proxy for seizure activity. Following collection of locomotor data, observation of a startle response and visual inspection for abnormal morphology confirmed that alterations in swim activity were not caused by compound toxicity.
We induced seizures in 7 dpf zebrafish larvae by the addition of […] PTZ as originally developed by Baraban et al., 2005. In a 48-well plate, one 7-dpf zebrafish was added per well. Larvae were dosed with each compound at a sub-lethal dose 1 hr prior to PTZ treatment. Two control rows were included with each experiment—tank water only control and PTZ only. Seizures were induced by adding PTZ to wells to yield a final concentration of 10 mM. After 5 min, the plate was transferred to the Daniovision instrument (Noldus Information Technology) and the chamber light was turned on. After 2 min, MediaRecorder (Noldus) was used to record video for 15 min. A small number of videos were acquired at 25 frames per second, but the majority of data were acquired at 60 frames per second. […] Ethovision XT software (Noldus) was used to track the fish movement from the video images in order to calculate the total distance traveled over 15 min. All experimental comparisons were made between animals from the same clutch.
as §1

Where [2] appears, read: Mus musculus, HT-22, 24 h, HT22 cells, 24 hr, 95% CI in parentheses.
The mark [3] stands for this setting: Mus musculus, HT-22, HT22 cells.
Setting [4] is: HT22 cells, 24 hr, 95% CI in parentheses.

As for `CC#CCC(CO)NC1=CC(=O)c2ccccc2C1=O` (racemic) [Compound 18, Rac-2-((1-hydroxyhex-4-yn-2-yl)amino)naphthalene-1,4-dione], the EC50 in the experiment with HT22 cells (setting [2]) was 2170 nM; in the experiment on HT22 cells (setting [3]) it was above 2000 nM. Further, the minimal effective concentration in experiment [1] (Danio rerio) was above 10 µM.
The corresponding values for `C#CCC(C)NC1=CC(=O)c2ccccc2C1=O` (racemic) [Compound 20, Rac-2-(pent-4-yn-2-ylamino)naphthalene-1,4-dione] are 3690 nM, above 2000 nM and above 10 µM.
As for `C#CCC(NC1=CC(=O)c2ccccc2C1=O)c1ccccc1` (racemic) [Compound 21, Rac-2-((1-phenylbut-3-yn-1-yl)amino)naphthalene-1,4-dione], in the experiment on HT22 cells (setting [2]), the EC50 was 6150 nM. For the same compound, the minimal effective concentration in experiment [1] (Danio rerio) stood at 5 µM.
Regarding `C=CCC#CCNC1=CC(=O)c2ccccc2C1=O` [Compound 6, 2-(Hex-5-en-2-yn-1-ylamino)naphthalene-1,4-dione], the concentration for a half-maximal effect (EC50) with HT22 cells (setting [2]) worked out at 2640 nM. Besides, in experiment [1] (Danio rerio), the minimal effective concentration amounted to 10 µM. For the same compound, in experiment [1] (Danio rerio, 5 μM, read-out: reduction of PTZ-induced locomotor activity), the inhibition in vivo at 5 µM is around 65%. In experiment [1] (Danio rerio, 10 μM, read-out: reduction of PTZ-induced locomotor activity), the inhibition in vivo at 10 µM was found to be 85%.
`O=C1C=C(NCC#Cc2cccc(F)c2)C(=O)c2ccccc21` [Compound 9, 2-((3-(3-Fluorophenyl)prop-2-yn-1-yl)amino)naphthalene-1,4-dione]: the half-maximal effective concentration (EC50) in the experiment on HT22 cells (setting [2]) worked out at 216 nM.
Regarding `COc1cccc(C#CCNC2=CC(=O)c3ccccc3C2=O)c1` [Compound 10, 2-((3-(3-Methoxyphenyl)prop-2-yn-1-yl)amino)naphthalene-1,4-dione], in the experiment on HT22 cells (setting [2]), the concentration for a half-maximal effect (EC50) came out at 215 nM. The minimal effective concentration in experiment [1] (Danio rerio) is above 20 µM.
Turning to `O=C1C=C(NCC#Cc2cccnc2)C(=O)c2ccccc21` [Compound 11, 2-((3-(Pyridin-3-yl)prop-2-yn-1-yl)amino)naphthalene-1,4-dione], the EC50 in the experiment on HT22 cells (setting [2]) stood at 290 nM.
As for `O=C1C=C(NCC#Cc2ccc(C(F)(F)F)cc2)C(=O)c2ccccc21` [Compound 12, 2-((3-(4-(Trifluoromethyl)phenyl)prop-2-yn-1-yl)amino)naphthalene-1,4-dione], the results for the EC50 in the experiment with HT22 cells (setting [4]) and with HT22 cells (setting [2]) were 566 nM and around 500 nM, respectively. Moreover, the minimal effective concentration in experiment [1] and in experiment [1] (Danio rerio) was above 10 µM in each case.
Regarding `O=C1C=C(NCC#Cc2cccc(C(F)(F)F)c2)C(=O)c2ccccc21` [Compound 13, 2-((3-(3-(Trifluoromethyl)phenyl)prop-2-yn-1-yl)amino)naphthalene-1,4-dione], the values for the EC50 in the experiment with HT22 cells (setting [4]) and in the experiment on HT22 cells (setting [2]) were 584 nM and around 500 nM, respectively. Further, the minimal effective concentration in experiment [1] and in experiment [1] (Danio rerio) was above 10 µM throughout.
Regarding `CC(C)=CCC/C(C)=C/CNC1=CC(=O)c2ccccc2C1=O` [Compound 22, (E)-2-((3,7-Dimethylocta-2,6-dien-1-yl)amino)naphthalene-1,4-dione], the EC50 with HT22 cells (HT22 cells) was around 9000 nM; in the experiment with HT22 cells (setting [2]), 9220 nM; in the experiment on HT22 cells (setting [3]), around 9200 nM. In addition, in experiment [1], the “anti-seizure activity” value was “activity at 20 and 40 μM that resulted from sedation”. Also, the minimal effective concentration in experiment [1] (Danio rerio) turned out to be 20 µM.
Consider `CC(C)=CCC/C(C)=C/CNC1=C(Br)C(=O)c2ccccc2C1=O` [Compound 23, (E)-2-Bromo-3-((3,7-dimethylocta-2,6-dien-1-yl)amino)naphthalene-1,4-dione], for which the EC50 with HT22 cells (setting [2]) was 133 nM. Besides, the “anti-seizure activity” value in experiment [1] was “ineffective”. Also, the minimal effective concentration in experiment [1] (Danio rerio) is above 10 µM.
`CCCCOC1=CC(=O)c2ccccc2C1=O` [Compound 26, 2-Butoxynaphthalene-1,4-dione]: the EC50 with HT22 cells (Mus musculus, HT-22, HT22 cells, 24 hr, 95% CI in parentheses) stood at 78 nM.
For `O=C1C=C(OCc2ccccc2)C(=O)c2ccccc21` [Compound 27, 2-(Benzyloxy)naphthalene-1,4-dione], the EC50 with HT22 cells (setting [2]) amounted to 168 nM.
Consider `CC#CCOC1=CC(=O)c2ccccc2C1=O` [Compound 28, 2-(But-2-yn-1-yloxy)naphthalene-1,4-dione], for which the EC50 in the experiment with HT22 cells (setting [2]) amounted to 168 nM.

The record behind these values is patent US11771685B2, “Compounds for the treatment of neurological or mitochondrial diseases” (MUSC FOUNDATION FOR RESEARCH DEVELOPMENT, priority 2018, dated 2023).
